Measurements published in patent EP0660840B1 (priority 1992, dated 1994).

What was measured:
plasma ANF = assay: Effect on rat plasma ANF concentration during continuous ANF infusion (radioimmunoassay); type: in vivo, Male Sprague-Dawley rats; settings: about 10 mg/kg p.o., in 10% ethanol/polyethylene glycol 400; conscious rats infused with ANF 450 ng/kg/min i.v.
Experimental: The effect of the compounds of the invention on rat plasma ANF concentration can be determined as follows:
Male Sprague-Dawley rats (275-390 g) are anesthetized with ketamine (150 mg/kg)/acepromazine (10%) and instrumented with catheters in the femoral artery and vein to obtain blood samples and infuse ANF, respectively. The rats are tethered with a swivel system and are allowed to recover for 24 hours before being studied in the conscious, unrestrained state.
In this assay, plasma ANF levels are determined in the presence and absence of NEP inhibition. On the day of study, all rats are infused continuously with ANF at 450 ng/kg/min. i.v. for the entire 5 hours of the experiment. Sixty minutes after beginning the infusion, blood samples for baseline ANF measurements are obtained (time 0) and the rats are then randomly divided into groups treated with the test compound or vehicle. Additional blood samples are taken 30, 60, 120, 180 and 240 minutes after administration of the test compound.
Plasma concentrations are determined by a specific radioimmunoassay. […] The supernatant is decanted and the pellets counted in a gamma counter. […] Plasma ANF levels are expressed as a percent of those measured in vehicle-treated animals which received ANF alone (450 ng/kg/min i.v.).

[1] = test system: DOCA-salt hypertensive rats; assay: Antihypertensive effect in DOCA-salt hypertensive rats; type: in vivo; settings: 10 mg/Kg p.o., in PEG 400; DOCA-salt hypertensive rat model
Experimental: The antihypertensive effect can be determined in desoxycorticosterone acetate (DOCA)-salt hypertensive rats.
DOCA-salt hypertensive rats (280-380 g) are prepared by the standard method. Rats underwent a unilateral nephrectomy and one week later are implanted with silastic pellets containing 100 mg/kg of DOCA. The rats are maintained on 1% NaCl/0.2% KCI drinking water for three to five weeks until sustained hypertension is established. The antihypertensive activity is evaluated at this time.
Two days before an experiment, the rats are anesthetized with methoxyflurane and instrumented with catheters in the femoral artery to measure arterial blood pressure. Forty-eight hours later, baseline arterial pressure and heart rate are recorded during a 1 hour period. The test compound or vehicle is then administered and the same cardiovascular parameters are monitored for an additional 5 hours.

**Q.** With `O=P(CN[C@@H](Cc1ccc(-c2ccccc2)cc1)c1nnn[nH]1)(Oc1ccccc1)Oc1ccccc1` [Example 3, (S)-[2-Biphenyl-4-yl-1-(1H-tetrazol-5-yl)-ethylamino]-methylphosphonic acid diphenyl ester] as the compound, how does the “plasma ANF levels” value (plasma ANF) read?
**A.** Its value is “significant increases”.

**Q.** And the blood pressure [1]?
**A.** The blood pressure was “significant reduction”.
